In patent US11835503B2, “TMA-formation inhibitor treatment for elevated TMA-containing compound diseases” (The Cleveland Clinic Foundation, priority 2009, dated 2023):

What was measured:
[1] = test system: intestinal microflora; experiment: D3-carnitine gavage in mice, plasma D3-TMA and D3-TMANO by stable isotope dilution LC/MS/MS; format: in vivo; conditions: gavage at t=0, plasma
Excerpt: In additional work, mice were gavaged with D3-carnitine and the time dependent appearance of D3-TMA and TMANO were quantified in plasma. Where indicated in FIG. 8, mice were pretreated for 3 weeks with a broad spectrum antibiotic cocktail to suppress intestinal microflora. […] Plasma levels of the deuterium (D3) labeled metabolites of D3-carnitine, D3-TMA and D3-TMANO, were quantified in plasma by stable isotope dilution LC/MS/MS analysis. D3-Carnitine was given by gavage feeding to mice at t=0. Results are shown in FIG. 8, with TMA production shown in FIG. 8B and TMANO production in FIG. 8C.

[2] = test system: intestinal microflora; experiment: D3-carnitine gavage in mice, plasma D3-crotonobetaine and D3-gamma-butyrobetaine by LC/MS/MS; format: in vivo
Excerpt: In further work, mice were gavaged with D3-carnitine and the time dependent appearance of D3-crotonobetaine and gamma butyrobetaine were quantified in plasma. Where indicated in FIG. 9, mice were pretreated for 3 weeks with a broad spectrum antibiotic cocktail to suppress intestinal microflora. […] D3-crotonobetaine and D3-gamma-butyrobetaine were quantified in plasma by LC/MS/MS analysis isolated at the indicated times following D3-carnitine gavage feeding. Results are shown in FIG. 9, with crotonbetaine production shown in FIG. 9A, and gamma-butyrobetain production shown in FIG. 9B.

[3] = test system: intestinal flora; experiment: oral d9-(trimethyl)-PC challenge in subjects, time course of plasma d9-TMA by LC/MS/MS; format: in vivo, humans; conditions: human subjects, 250 mg oral
Method: TMA is detected in plasma. While TMA is a gas at room and body temperature, if one acidifies the plasma, and the sample flash frozen and analyzed immediately upon thaw, one can measure the TMA cation by mass spectrometry.
Subjects were given 250 mg of d9-(trimethyl)-PC, and then time course of d9-TMA in plasma quantified. […] Plasma TMA was quantified by LC/MS/MS of samples immediately after blood draw, acidification of the plasma with 10 mM HCl to lower TMA vapor pressure, and snap freezing in liquid nitrogen and storage at −80 C until time of analysis.

Molecule: [2H]C([2H])([2H])[N+](C)(C)CC(O)CC(=O)[O-] (stereo not drawn) [D3-carnitine]
- metabolites of D3-carnitine appearing in plasma (D3-TMA, D3-TMANO) [1]: both TMA and TMANO are generated as a metabolite of carnitine ingestion
- metabolites of D3-carnitine appearing in plasma (D3-crotonobetaine, D3-gamma-butyrobetaine) [2]: both compounds are generated as a metabolite of carnitine ingestion

Molecule: d9-(trimethyl)-PC
- time at which plasma d9-TMA levels increased after the PC challenge [3]: 4 to 8 h
